Patent publication US7754718B2 (priority 2004, dated 2010)
Where two headings read alike, the source gives them in different places.

Assays:
EBV = assay: In vitro antiviral assay for EBV; type: cell-based, Epstein-Barr Virus; settings: human gammaherpesvirus 4, read-out: Antiviral Activities (EC50, μM) EBV
Procedure, shortened: (§1)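 Performed according to previously reported procedures for each virus; no further conditions are given for the HSV-2, CMV, HIV or EBV assays.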

CEM cells = assay: Cell cytotoxicity assay on CEM cells; type: cell-based; settings: Homo sapiens, CCRF-CEM, concentration that inhibited 50% of cell growth, read-out: IC50 (μM) CEM
Procedure, shortened: (§2)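 MT-2 and CEM cytotoxicity determined per previously reported procedures. HepG2 cells seeded at 10^4 cells/ml in MEME + 10% FBS, compound added on day 2 for 3 further days at 37° C. Viable layer stained with methylene blue, solubilized in 1% sarcosyl, A595 read.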

[1] = test system: HBV 3.5 kb, 2.4/2.1 kb transcripts; assay: HBV RNA in HepG2.2.15 cells, Northern blot hybridization; type: cell-based, Hepatitis B virus; settings: for EC50: Hepatitis B virus, 144 h, read-out: EC50 for the 3.5 kb transcript
Protocol: (§3) Southern blot hybridization was used to measure the effects of compounds on HBV DNA. Total DNA from cells was extracted using Dneasy Tissue kit (Qiagen Inc. Valencia, Calif.) and separated on a 0.8% agarose gel. Separated DNA was transferred to a Hybond-N+membrane (Amersham Pharmacia Biotech Inc. Piscataway, N.J.). Inhibition of viral DNA replication was assessed by comparison of the replicative HBV DNA from drug-treated versus untreated cultures using hybridization of the membrane with a [α-^32P] dCTP labeled whole HBV DNA probe followed by autoradiography. Quantitative densitometry was performed on a Molecular Dynamics Densitometer (Amersham Pharmacia Biotech Inc. Piscataway, N.J.) using ImageQuaNT image analysis software. The integrated HBV genome was used as the internal control to normalize the amount of DNA loaded. Northern blot hybridization was used to measure the effects of the compounds on HBV RNA. Total intracellular RNA was extracted from cells using Rneasy kit (Qiagen Inc. Valencia, Calif.). RNA was separated in a 1.2% formaldehyde agarose gel and transferred to a Hybond-N+ membrane (Amersham Pharmacia Biotech Inc. Piscataway, N.J.). The membrane was hybridized with the same probe mentioned above at 65° C. followed by autoradiography. GAPDH RNA level was used as an internal control to normalize the amount of RNA loaded. The decrease of HBV core protein expression was assessed by western blot. A cellular crude extract of […] cells was separated on a 12% SDS-PAGE gel and transferred onto a nitrocellulose membrane (Bio-rad Laboratories, Hercules, Calif.). Anti-HBV core antibody (DAKO Corp. Carpinteria, Calif.) and anti rabbit IgG secondary antibody (Sigma. St. Louis, Mo.) were added. Actin protein level was used as the internal control.
Since helioxanthin and its derivatives are a unique class of chemical with anti-HBV activity, the mechanism of HBV inhibition was examined by first assessing their impact on HBV mRNA. The HepG2.2.15 cells treated with these two drugs for 6 days, then a Northern blot analysis on the total cellular RNA was performed with a HBV specific [α-^32P] dCTP labeled probe. […] Lamivudine had no effect on HBV RNA level.

HBV core protein = HBV core protein expression in HepG2.2.15 cells, Western blot; type: cell-based, Hepatitis B virus; settings: 6 days
Protocol: as §3
Since 3.5 kb HBV transcript was decreased after drug treatment, it was anticipated that this class of compounds would also affect viral protein expression. HepG2.2.15 cells were treated with helioxanthin and 22 for 6 days. […]

HCV = assay: Anti-HCV activity in Huh-Luc/neo cell line, luciferase activity after 3-day treatment; type: cell-based, Hepatitis C virus; settings: Hepatitis C virus, 72 h; at 3 μM, Huh-Luc/neo cells, 3 days; read-out: HCV percent of inhibition
HSV-1 = assay: In vitro antiviral assay for HSV-1; type: cell-based, Herpes Simplex Virus 1; settings: Human alphaherpesvirus 1, read-out: Antiviral Activities (EC50, μM) HSV-1
Procedure, shortened: as §1

HSV-2 = assay: In vitro antiviral assay for HSV-2; type: cell-based, Herpes Simplex Virus 2; settings: Human alphaherpesvirus 2, read-out: Antiviral Activities (EC50, μM) HSV-2
Procedure, shortened: as §1

HIV = assay: In vitro antiviral assay for HIV; type: cell-based, human immunodeficiency virus; settings: Human immunodeficiency virus 1, read-out: Antiviral Activities (EC50, μM) HIV, in vitro; (T) after a value means toxic
Procedure, shortened: as §1

[2] = Cell cytotoxicity assay on MT-2 cells; type: cell-based; settings: human, read-out: Cytotoxity (ID50, μM) MT-2
Procedure, shortened: as §2

[3] = Cell cytotoxicity assay on CEM cells; type: cell-based; settings: human, read-out: Cytotoxity (ID50, μM) CEM
Procedure, shortened: as §2

CMV = assay: In vitro antiviral assay for CMV; type: cell-based, cytomegalovirus; settings: Human betaherpesvirus 5, read-out: Antiviral Activities (EC50, μM) CMV
Protocol: The antiviral assays for HBV, (Doong et al., 1991, Proc. Natl. Acad. Sci. U.S.A. 88:8495-8499) HSV-1, (Bastow et al., 1983, Antimicrob. Agents Chemother. 23: 914-917) HSV-2, (Bastow et al., 1983, Antimicrob. Agents Chemother. 23:914-917) EBV, (Yao et al., 1993, Antimicrob. Agents Chemother. 37:1420-1425), CMV (Andreoni et al., 2002, J. Med. Virol. 67:33-40) and HIV (Mellors et al., 1992, Mol. Pharmacol. 41: 446-451) were performed according to the previously reported procedures. Anti-HCV activities were tested in Huh-Luc/neo cell line. Cells were seeded into 48-well plates and grown until confluent. Different concentrations of drugs were added into media (DMEM, 10% dFBS) and incubated for 3 days. At the end of 3-day treatment, medium were removed and 50 μl of Passive lysis buffer (Promega) were added. Cell lysate was shaken at room temperature for 15 min. 30 μl/well of cell lysate was transferred to another 96-well plate, 100 μl/well of luciferase activity assay substrate was added into plate and read by a luminometer (Amersham) immediately.

[4] = HepG2.2.15 cells, 6 days, Northern blot

SMILES	EC50 (EBV) [µM]	IC50 (CEM cells) [µM]	effect on HBV 3.5 kb, 2.4/2.1 kb transcripts (HBV RNA level) [1]	effect on HBV core protein expression (HBV core protein)	inhibition at 3 µM (HCV) [%]	EC50 (HSV-1) [µM]	EC50 (HSV-2) [µM]	EC50 (HIV) [µM]	IC50 [2] [µM]	IC50 [3] [µM]	effect on HBV 3.5 kb, 2.4/2.1 kb transcripts (HBV RNA level) [1, 4]	EC50 [1, 4] [µM]	melting point	EC50 (CMV) [µM]	effect on HBV 3.5 kb, 2.4/2.1 kb transcripts (HBV RNA level) ([1]; HepG2.2.15 cells, 6 days, Northern blot, listed as helioxanthin)	effect on HBV core protein expression (HBV core protein; listed as helioxanthin)
Nc1ccn([C@@H]2CS[C@H](CO)O2)c(=O)n1 [Compound 3TC, (−)-(2R,5S)-1-[2-(hydroxymethyl)oxathiolan-5-yl]cytosine]	0.4	> 100	no effect	no effect												
COc1ccc(-c2c3c(cc4ccc5c(c24)OCO5)C(=O)NC3)cc1OC [Compound 22, 10-(3,4-Dimethoxy-phenyl)-8,9-dihydro-1,3-dioxa-8-aza-dicyclopenta[a,g]naphthalen-7-one]	> 20	3.6 ± 1.2		decreased in a dose-dependent manner	80	0.6	0.5	> 16	16	5	decreased 3.5 kb, 2.4/2.1 kb HBV transcripts in a dose-dependent manner	1	258 °C (dec.)			
O=C1OCc2c1cc1ccc3c(c1c2-c1ccc2c(c1)OCO2)OCO3 [Compound 2, 10-Benzo[1,3]dioxol-5-yl-9H-furo[3′,4′:6,7]naphtho[1,2-d][1,3]dioxol-7-one, reference compound]	> 20	32			64	2	35	> 2.5	2.5	31		0.09		7.3	decreased 3.5 kb, 2.4/2.1 kb HBV transcripts in a dose-dependent manner	decreased in a dose-dependent manner
